Series [1] deals with T1, Acetylcholinesterase (Electrophorus electricus, UniProt O42275). The series can be described thus: Inhibition of electric eel AChE using acetylthiocholine iodide as substrate preincubated for 10 mins followed by substrate addition measured for 6 mins by Ellman's method. In general terms: In Ellman's method for cholinesterases, released thiocholine reacts with DTNB.
In another series the target is Cholinesterase (Equus caballus, UniProt P81908). The series can be described thus: Inhibition of equine serum BuChE using butyrylthiocholine iodide as substrate preincubated for 10 mins followed by substrate addition measured for 6 mins by Ellman's method.
Cholinesterase, sequence (P81908 whole entry): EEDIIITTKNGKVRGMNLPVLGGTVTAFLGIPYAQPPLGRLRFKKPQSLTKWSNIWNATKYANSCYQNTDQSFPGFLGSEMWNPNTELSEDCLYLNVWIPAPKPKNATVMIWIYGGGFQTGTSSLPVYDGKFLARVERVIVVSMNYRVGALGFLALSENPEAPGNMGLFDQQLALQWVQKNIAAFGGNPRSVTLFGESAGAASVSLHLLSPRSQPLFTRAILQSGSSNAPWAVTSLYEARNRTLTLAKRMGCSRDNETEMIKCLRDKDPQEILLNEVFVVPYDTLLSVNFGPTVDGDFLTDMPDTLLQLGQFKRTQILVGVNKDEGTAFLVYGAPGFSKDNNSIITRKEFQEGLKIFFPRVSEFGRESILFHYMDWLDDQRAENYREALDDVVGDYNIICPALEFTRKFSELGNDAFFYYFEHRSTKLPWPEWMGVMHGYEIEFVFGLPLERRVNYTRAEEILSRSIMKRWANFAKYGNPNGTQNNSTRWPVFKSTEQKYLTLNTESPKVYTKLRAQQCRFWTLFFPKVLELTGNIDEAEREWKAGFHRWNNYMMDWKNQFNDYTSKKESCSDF
Series [2] is described as follows: in vitro. As to conditions: human, HepG2 cells.
Description: Cytotoxicity against human HepG2 cells assessed as cell viability at 1 uM after 24 hrs by MTT assay relative to control
Series [3] in a line: in vitro. As to conditions: human, HepG2 cells. This is another data set of the same source.
Description: Cytotoxicity against human HepG2 cells assessed as cell viability at 5 uM after 24 hrs by MTT assay relative to control
The nature of series [4]: in vitro. As to conditions: human, HepG2 cells. This is another data set of the same source.
Description: Cytotoxicity against human HepG2 cells assessed as cell viability at 10 uM after 24 hrs by MTT assay relative to control
Series [5] in a line: in vitro. The conditions noted are these: human, HepG2 cells. This is another data set of the same source.
Description: Cytotoxicity against human HepG2 cells assessed as cell viability at 25 uM after 24 hrs by MTT assay relative to control
A short description of series [6]: in vitro. The conditions noted are these: human, HepG2 cells. This is another data set of the same source.
Description: Cytotoxicity against human HepG2 cells assessed as cell viability at 50 uM after 24 hrs by MTT assay relative to control
Series [7] can be described thus: in vitro. As to conditions: human, HepG2 cells. The source holds these as a separate data set.
Description: Cytotoxicity against human HepG2 cells assessed as cell viability at 100 uM after 24 hrs by MTT assay relative to control
The nature of series [8]: in vitro. The conditions noted are these: human, HepG2 cells. The source holds these as a separate data set.
Description: Cytotoxicity against human HepG2 cells assessed as cell viability at 300 uM after 24 hrs by MTT assay relative to control
In series [9] the target is T1, Acetylcholinesterase. The series can be described thus: Mixed-type inhibition of electric eel AChE using acetylthiocholine iodide as substrate preincubated for 10 mins followed by substrate addition measured for 6 mins by Lineweaver-Burk plot analysis.
For series [10], the system named is PC-12. In words: Neuroprotective activity in rat PC12 cells assessed as decrease in H2O2-mediated apoptosis at 100 uM preincubated for 3 hrs followed by H2O2 challenge measured after 24 hrs by MTT assay. Format: functional, cell-based. For orientation: Tetrazolium dyes change colour on reduction, which living cells bring about.
The subject of series [11] is PC-12. In words: Neuroprotective activity in rat PC12 cells assessed as decrease in H2O2 mediated apoptosis at 10 uM preincubated for 3 hrs followed by H2O2 challenge measured after 24 hrs by MTT assay. Type of series: functional, cell-based.
In series [12] the test system is PC-12. In words: Neuroprotective activity in rat PC12 cells assessed as decrease in H2O2 mediated apoptosis at 1 uM preincubated for 3 hrs followed by H2O2 challenge measured after 24 hrs by MTT assay. Format: functional, cell-based.
In series [13] the test system is PC-12. The series can be described thus: Neurotoxicity in rat PC12 cells assessed as reduction in cell viability at 1 to 10 uM after 24 hrs by MTT assay. Format: toxicity, cell-based. As to conditions: pc-12, 24 h.
For series [14], the target named is Acetylcholinesterase (Electrophorus electricus) (UniProt O42275). The series can be described thus: Potency index, ratio of IC50 for tacrine to IC50 for test compound for electric eel AChE.
Acetylcholinesterase (Electrophorus electricus), sequence (O42275 24-633 limits assumed): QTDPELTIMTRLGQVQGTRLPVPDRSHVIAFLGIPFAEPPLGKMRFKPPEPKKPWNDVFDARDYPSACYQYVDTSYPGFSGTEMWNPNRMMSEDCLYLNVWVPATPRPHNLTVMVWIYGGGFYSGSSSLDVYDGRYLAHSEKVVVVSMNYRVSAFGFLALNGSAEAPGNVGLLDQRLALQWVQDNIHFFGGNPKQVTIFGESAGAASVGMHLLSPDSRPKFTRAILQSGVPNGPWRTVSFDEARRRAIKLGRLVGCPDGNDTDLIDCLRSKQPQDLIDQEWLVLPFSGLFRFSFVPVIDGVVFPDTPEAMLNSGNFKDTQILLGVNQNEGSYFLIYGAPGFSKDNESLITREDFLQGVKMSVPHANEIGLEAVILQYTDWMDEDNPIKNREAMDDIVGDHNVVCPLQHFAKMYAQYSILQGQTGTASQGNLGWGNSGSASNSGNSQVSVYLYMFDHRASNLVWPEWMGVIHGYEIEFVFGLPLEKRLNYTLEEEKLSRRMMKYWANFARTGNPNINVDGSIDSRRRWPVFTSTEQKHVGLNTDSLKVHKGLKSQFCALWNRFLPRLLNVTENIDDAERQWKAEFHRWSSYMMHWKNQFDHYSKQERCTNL

Calls of active or inactive are those of the source. No cut-off for these calls is given here.

T1 sequence (O42275 whole entry): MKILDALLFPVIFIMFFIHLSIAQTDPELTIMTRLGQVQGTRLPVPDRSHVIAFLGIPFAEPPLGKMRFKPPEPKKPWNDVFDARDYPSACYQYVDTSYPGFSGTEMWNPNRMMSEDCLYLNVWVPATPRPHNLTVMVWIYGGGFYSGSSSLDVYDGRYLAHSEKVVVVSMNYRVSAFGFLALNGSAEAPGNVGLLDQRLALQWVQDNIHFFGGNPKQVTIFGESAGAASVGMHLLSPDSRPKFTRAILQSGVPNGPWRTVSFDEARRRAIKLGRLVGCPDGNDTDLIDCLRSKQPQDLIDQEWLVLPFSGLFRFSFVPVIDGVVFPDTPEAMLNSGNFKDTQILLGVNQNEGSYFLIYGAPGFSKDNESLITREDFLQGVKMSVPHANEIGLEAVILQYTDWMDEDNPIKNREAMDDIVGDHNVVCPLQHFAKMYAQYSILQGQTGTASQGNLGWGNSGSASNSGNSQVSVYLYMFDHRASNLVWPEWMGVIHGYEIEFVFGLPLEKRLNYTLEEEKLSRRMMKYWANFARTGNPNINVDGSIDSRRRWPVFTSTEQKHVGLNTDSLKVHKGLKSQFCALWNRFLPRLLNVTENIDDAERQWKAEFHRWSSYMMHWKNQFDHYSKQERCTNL

As for `Cc1ccccc1C1c2c(nc3c(c2N)CCCC3)-n2c(=O)c3ccccc3c(=O)n21` (centres undefined), the results for the IC50 against Acetylcholinesterase [1] and against Cholinesterase were 193 nM and above 100000 nM, respectively.
With `Nc1c2c(nc3c1C(c1ccc(Cl)cc1)n1c(=O)c4ccccc4c(=O)n1-3)CCCC2` (centres undefined), the IC50 against Acetylcholinesterase [1] was determined as 60 nM; against Cholinesterase it was 96200 nM. This compound also came in with a viability at 24 h, 1 µM in “in vitro [2]” of 98.6%. The viability at 24 h, 5 µM in “in vitro [3]” was determined as 96.2%. Further, the viability at 24 h, 10 µM in “in vitro [4]” amounted to 95.1%. Also, in “in vitro [5]”, the viability at 24 h, 25 µM is 94.4%. This compound showed a viability at 24 h, 50 µM in the series “in vitro [6]” of 92.4%. Moreover, the viability at 24 h, 100 µM in “in vitro [7]” stood at 91.3%. Besides, the viability at 24 h, 300 µM in the series “in vitro [8]” turned out to be 89.3%.
Turning to `COc1ccccc1C1c2c(nc3c(c2N)CCCC3)-n2c(=O)c3ccccc3c(=O)n21` (centres undefined), the IC50 on Acetylcholinesterase [1] was 49 nM; against Cholinesterase it was 93300 nM. On Acetylcholinesterase [9], the affinity, expressed as Ki, was 12.6 nM. Moreover, the outcome with PC-12 [10] was Active. Moreover, the outcome in the series with PC-12 [11] and in the series with PC-12 [12] was inactive. Further, in the series with PC-12 [13], the Activity result is recorded as “Non-Toxic”. In the series “in vitro [2]”, this compound gave a viability at 24 h, 1 µM of 96.3%. In “in vitro [3]”, this compound gave a viability at 24 h, 5 µM of 95%. The compound further yielded a viability at 24 h, 10 µM in “in vitro [4]” of 95.2%. Besides, the viability at 24 h, 25 µM in “in vitro [5]” amounted to 90.2%. Also, in the series “in vitro [6]”, the viability at 24 h, 50 µM was 87.3%. Further, in “in vitro [7]”, the viability at 24 h, 100 µM came out at 86.4%. For the same compound, the viability at 24 h, 300 µM in the series “in vitro [8]” was 83%.
As for `Nc1c2c(nc3c1C(c1ccc(F)cc1)n1c(=O)c4ccccc4c(=O)n1-3)CCCC2` (centres undefined), the results for the half-maximal inhibitory concentration (IC50) at Acetylcholinesterase [1] and against Cholinesterase were 69 nM and above 100000 nM, respectively. The viability at 24 h, 1 µM in the series “in vitro [2]” is 91.2%. Moreover, in “in vitro [3]”, the viability at 24 h, 5 µM came out at 87.5%. The viability at 24 h, 10 µM in “in vitro [4]” stood at 83.3%. Further, the viability at 24 h, 25 µM in the series “in vitro [5]” is 80%. In “in vitro [6]”, this compound had a viability at 24 h, 50 µM of 75.9%. The same compound came in with a viability at 24 h, 100 µM in the series “in vitro [7]” of 71.4%. Besides, the viability at 24 h, 300 µM in “in vitro [8]” came out at 66.4%.
As for `Nc1c2c(nc3c1C(c1ccccc1[N+](=O)[O-])n1c(=O)c4ccccc4c(=O)n1-3)CCCC2` (centres undefined), the IC50 on Acetylcholinesterase [1] was 280 nM; on Cholinesterase, above 100000 nM.
Consider `Nc1c2c(nc3c1C(c1ccccc1Cl)n1c(=O)c4ccccc4c(=O)n1-3)CCCC2` (centres undefined), for which the results for the IC50 at Acetylcholinesterase [1] and on Cholinesterase were 592 nM and above 100000 nM, respectively.
Take `Nc1c2c(nc3c1C(c1ccc(Br)cc1)n1c(=O)c4ccccc4c(=O)n1-3)CCCC2` (centres undefined): the IC50 against Acetylcholinesterase [1] was 80 nM; on Cholinesterase it was above 100000 nM. The viability at 24 h, 1 µM in “in vitro [2]” stood at 99.8%. In “in vitro [3]”, this compound came in with a viability at 24 h, 5 µM of 98.3%. The compound further came in with a viability at 24 h, 10 µM in the series “in vitro [4]” of 97.6%. Also, the viability at 24 h, 25 µM in the series “in vitro [5]” amounted to 96.4%. This compound also returned a viability at 24 h, 50 µM in the series “in vitro [6]” of 95.7%. Moreover, the viability at 24 h, 100 µM in the series “in vitro [7]” worked out at 92.8%. The same compound yielded a viability at 24 h, 300 µM in the series “in vitro [8]” of 90%.
On to `Nc1c2c(nc3c1C(c1cccc(F)c1)n1c(=O)c4ccccc4c(=O)n1-3)CCCC2` (centres undefined), for which the IC50 at Acetylcholinesterase [1] came to 23 nM; against Cholinesterase, 37200 nM. For the same compound, the Ratio IC50 in [14] stood at 15. The same compound gave a viability at 24 h, 1 µM in “in vitro [2]” of 93.5%. Further, the viability at 24 h, 5 µM in the series “in vitro [3]” was determined as 90.9%. For the same compound, the viability at 24 h, 10 µM in “in vitro [4]” is 86.1%. This compound also returned a viability at 24 h, 25 µM in the series “in vitro [5]” of 82.7%. In the series “in vitro [6]”, the viability at 24 h, 50 µM came to 78.8%. The compound also gave a viability at 24 h, 100 µM in the series “in vitro [7]” of 74.8%. For the same compound, the viability at 24 h, 300 µM in “in vitro [8]” was 68.2%.
In the case of `Nc1c2c(nc3c1C(c1ccccc1)n1c(=O)c4ccccc4c(=O)n1-3)CCCC2` (centres undefined), the IC50 against Acetylcholinesterase [1] was 614 nM; against Cholinesterase, above 100000 nM.
For `Cc1ccc(C2c3c(nc4c(c3N)CCCC4)-n3c(=O)c4ccccc4c(=O)n32)cc1` (centres undefined), the IC50 against Acetylcholinesterase [1] is 100 nM; against Cholinesterase, above 100000 nM.
Consider `COc1cc(OC)cc(C2c3c(nc4c(c3N)CCCC4)-n3c(=O)c4ccccc4c(=O)n32)c1` (centres undefined), for which the IC50 against Acetylcholinesterase [1] is 3370 nM; against Cholinesterase it was above 100000 nM.
The matching figures for `CC1c2c(nc3c(c2N)CCCC3)-n2c(=O)c3ccccc3c(=O)n21` (centres undefined): 2150 nM and above 100000 nM.
Regarding `Nc1c2c(nc3c1C(c1ccccc1F)n1c(=O)c4ccccc4c(=O)n1-3)CCCC2` (centres undefined), the IC50 is 618 nM against Acetylcholinesterase [1] and above 100000 nM at Cholinesterase.
On to `O=c1c(O)c(-c2ccc(O)c(O)c2)oc2cc(O)cc(O)c12`, for which, in the series with PC-12 [11], the outcome was Active.
In the case of `Nc1c2c(nc3c1C(c1cccc([N+](=O)[O-])c1)n1c(=O)c4ccccc4c(=O)n1-3)CCCC2` (centres undefined), the IC50 against Acetylcholinesterase [1] was 140 nM; at Cholinesterase, above 100000 nM.
Turning to `Cc1cccc(C2c3c(nc4c(c3N)CCCC4)-n3c(=O)c4ccccc4c(=O)n32)c1` (centres undefined), the values for the IC50 at Acetylcholinesterase [1] and against Cholinesterase were 467 nM and above 100000 nM, respectively.
In the same order, the values of `Nc1c2c(nc3c1C(c1cccc(O)c1)n1c(=O)c4ccccc4c(=O)n1-3)CCCC2` (centres undefined) are 160 nM and above 100000 nM.
Take `Nc1c2c(nc3c1C(c1ccccc1Br)n1c(=O)c4ccccc4c(=O)n1-3)CCCC2` (centres undefined): the values for the IC50 on Acetylcholinesterase [1] and against Cholinesterase were 599 nM and above 100000 nM, respectively.
Regarding `CCCCCC1c2c(nc3c(c2N)CCCC3)-n2c(=O)c3ccccc3c(=O)n21` (centres undefined), the IC50 against Acetylcholinesterase [1] is 612 nM; against Cholinesterase it was above 100000 nM.
In the same order, the values of `CCCC1c2c(nc3c(c2N)CCCC3)-n2c(=O)c3ccccc3c(=O)n21` (centres undefined) are 1630 nM and above 100000 nM.
As for `Nc1c2c(nc3c1C(c1cccc(Br)c1)n1c(=O)c4ccccc4c(=O)n1-3)CCCC2` (centres undefined), the IC50 is 271 nM against Acetylcholinesterase [1] and above 100000 nM at Cholinesterase.
The matching figures for `Nc1c2c(nc3c1C(c1ccc([N+](=O)[O-])cc1)n1c(=O)c4ccccc4c(=O)n1-3)CCCC2` (centres undefined): 310 nM and above 100000 nM.

What is called IC50 is the midpoint of a concentration-inhibition curve. Low readings indicate inhibition by little substance, high ones a need for much substance. The term viability denotes a read-out of living cells in per cent, often relative to untreated cells. Usually Ki stands for a dissociation constant, usually derived from enzyme kinetics or from competition with a known ligand.

Source of the values: ChEMBL document CHEMBL4190323, “New racemic annulated pyrazolo[1,2-b]phthalazines as tacrine-like AChE inhibitors with potential use in Alzheimer's disease” (Eur J Med Chem, 2017).
